From ChEMBL document CHEMBL3045829, “Structure- and species-dependent insecticidal effects of neo-clerodane diterpenes” (J Agric Food Chem, 2000)

Legend:
Spodoptera littoralis [1] = experiment: Nutritional effect in Spodoptera littoralis L6 larvae assessed as weight gain at 20 ug/insect administered through oral cannulation after 72 hr relative to untreated control; format: functional
Spodoptera littoralis [2] = experiment: Antifeedant activity against Spodoptera littoralis assessed as inhibition of feeding at 50 ug/cm2 by choice feeding assay relative to untreated control; format: functional
Myzus persicae [3] = experiment: Antifeedant activity against Myzus persicae (green peach aphid) assessed feeding settling inhibition index at 50 ug/cm2 relative to untreated control; format: functional
[4] = system: Leptinotarsa decemlineata; experiment: Antifeedant activity against Leptinotarsa decemlineata assessed as inhibition of feeding at 50 ug/cm2 by no-choice feeding assay relative to untreated control; format: functional
[5] = system: Leptinotarsa decemlineata; experiment: Antifeedant activity against Leptinotarsa decemlineata assessed as inhibition of feeding by no-choice feeding assay relative to untreated control; format: functional, organism-based
Myzus persicae [6] = experiment: Potency index, ratio of antifeedant activity of farnesol to compound against Myzus persicae (green peach aphid) assessed feeding settling inhibition index at 50 ug/cm2; format: functional
Spodoptera littoralis [7] = experiment: Nutritional effect in Spodoptera littoralis L6 larvae assessed as food consumption at 20 ug/insect administered through oral cannulation after 72 hr relative to untreated control; format: functional
Spodoptera littoralis [8] = experiment: Antifeedant activity against Spodoptera littoralis assessed as inhibition of feeding by choice feeding assay relative to untreated control; format: functional, organism-based
[9] = system: Leptinotarsa decemlineata; experiment: Antifeedant activity against Leptinotarsa decemlineata assessed as inhibition of feeding at 50 ug/cm2 by choice feeding assay relative to untreated control; format: functional
[10] = system: Leptinotarsa decemlineata; experiment: Toxicity against Leptinotarsa decemlineata assessed as insect mortality administered through hemolymph injection after 72 hr; format: functional; design: concentration or dose not given beside the values
[11] = system: Leptinotarsa decemlineata; experiment: Antifeedant activity against Leptinotarsa decemlineata assessed as inhibition of feeding by choice feeding assay relative to untreated control; format: functional, organism-based

`C=C1CCC[C@@H]2[C@@](C)(C/C=C(/C=O)CC=O)[C@H](C)CC[C@@]12C` [E-ISOLINARIDIAL] was tested, and the Activity (Spodoptera littoralis [1]) was 108.22%, the inhibition at 50 µg/cm2 (Spodoptera littoralis [2]) was 23.3% and the inhibition at 50 µg/cm2 (Myzus persicae [3]) was 44.3%. For the same molecule, the inhibition at 50 µg/cm2 [4] was 90.7%, the EC50 [5] was 8.5 microg/cm2 and the “fold change (FC)” value (Myzus persicae [6]) was 2. The Activity (Spodoptera littoralis [7]) was 95.56%, the EC50 (Spodoptera littoralis [8]) was greater than 50 microg/cm2 and the inhibition at 50 µg/cm2 [9] was 90.1%. For the same molecule, the mortality [10] was 0% and the EC50 [11] was 10.5 microg/cm2.

`CC(=O)OC/C=C(\COC(C)=O)C(C[C@@]1(C)[C@H](C)CC[C@]2(C)[C@@H]1CCCC21CO1)OC(C)=O` (stereo partly specified) was tested, and the Activity (Spodoptera littoralis [1]) was 31.03%, the inhibition at 50 µg/cm2 (Spodoptera littoralis [2]) was 17.9% and the inhibition at 50 µg/cm2 (Myzus persicae [3]) was 26.3%. It also gave an inhibition at 50 µg/cm2 [4] of 40.7%, an EC50 [5] greater than 50 microg/cm2 and an Activity (Spodoptera littoralis [7]) of 39.74%. The EC50 (Spodoptera littoralis [8]) was greater than 50 microg/cm2, the inhibition at 50 µg/cm2 [9] was 96.6% and the mortality [10] was 50%. It also gave an EC50 [11] of 6.4 microg/cm2.

`CC(C)=CCC/C(C)=C/CC/C(C)=C/CO` [FARNESOL] gave an inhibition at 50 µg/cm2 (Myzus persicae [3]) of 90.6%.

Molecule `C[C@@H]1CC[C@@H]2C(C)(C)C[C@]3(C)CC=C[C@]123` [SILPHINENE] has an EC50 [5] of 2.7 microg/cm2, a mortality [10] of 24% and an EC50 [11] of 0.27 microg/cm2.

`C=C1CCC[C@@H]2[C@@](C)(CC(O)/C(=C/COC(C)=O)COC(C)=O)[C@H](C)CC[C@@]12C` (stereo partly specified) was tested, and the Activity (Spodoptera littoralis [1]) was 106.65%, the inhibition at 50 µg/cm2 (Spodoptera littoralis [2]) was 42.5% and the inhibition at 50 µg/cm2 (Myzus persicae [3]) was 48.2%. For the same molecule, the inhibition at 50 µg/cm2 [4] was 22.6%, the EC50 [5] was greater than 50 microg/cm2 and the “fold change (FC)” value (Myzus persicae [6]) was 2. The Activity (Spodoptera littoralis [7]) was 88.33%, the EC50 (Spodoptera littoralis [8]) was greater than 50 microg/cm2 and the inhibition at 50 µg/cm2 [9] was 61.4%. The mortality [10] was 26% and the EC50 [11] was greater than 50 microg/cm2.

With `CC(=O)OC/C=C(\COC(C)=O)[C@@H](C[C@@]1(C)[C@H](C)CC[C@@]2(C)C(C)=CCC[C@H]12)OC(C)=O` the Activity (Spodoptera littoralis [1]) was 30.69%, the inhibition at 50 µg/cm2 (Spodoptera littoralis [2]) was 28.1% and the inhibition at 50 µg/cm2 (Myzus persicae [3]) was 33.5%. For the same molecule, the inhibition at 50 µg/cm2 [4] was 35.5%, the EC50 [5] was greater than 50 microg/cm2 and the Activity (Spodoptera littoralis [7]) was 40.02%. The EC50 (Spodoptera littoralis [8]) was greater than 50 microg/cm2, the inhibition at 50 µg/cm2 [9] was 31.4% and the mortality [10] was 8%. For the same molecule, the EC50 [11] was greater than 50 microg/cm2.

`C=C1CCC[C@@H]2[C@@](C)(CC(OC(C)=O)/C(=C/COC(C)=O)COC(C)=O)[C@H](C)CC[C@@]12C` (stereo partly specified) was tested, and the Activity (Spodoptera littoralis [1]) was 104.75%, the inhibition at 50 µg/cm2 (Spodoptera littoralis [2]) was 18.4% and the inhibition at 50 µg/cm2 (Myzus persicae [3]) was 19.7%. It also gave an inhibition at 50 µg/cm2 [4] of 11.6%, an EC50 [5] greater than 50 microg/cm2 and an Activity (Spodoptera littoralis [7]) of 93.02%. The EC50 (Spodoptera littoralis [8]) was greater than 50 microg/cm2, the inhibition at 50 µg/cm2 [9] was 38.5% and the mortality [10] was 32%. It also gave an EC50 [11] greater than 50 microg/cm2.

With `CC(=O)OC1C/C(=C/C[C@@]2(C)[C@H](C)CC[C@]3(C)[C@@H]2CCC[C@@]32CO2)C(OC(C)=O)O1` (stereo partly specified) the Activity (Spodoptera littoralis [1]) was 26.37%, the inhibition at 50 µg/cm2 (Spodoptera littoralis [2]) was 73.9% and the inhibition at 50 µg/cm2 [4] was 73.3%. For the same molecule, the Activity (Spodoptera littoralis [7]) was 55.54%, the inhibition at 50 µg/cm2 [9] was 91.2% and the mortality [10] was 42%.

`C=C1CCC[C@@H]2[C@@](C)(C/C=C(\CC=O)C(C)=O)[C@H](C)CC[C@@]12C` showed an Activity (Spodoptera littoralis [1]) of 104.33%, an inhibition at 50 µg/cm2 (Spodoptera littoralis [2]) of 14.7% and an inhibition at 50 µg/cm2 (Myzus persicae [3]) of 45.6%. The inhibition at 50 µg/cm2 [4] was 98.9%, the EC50 [5] was 7.7 microg/cm2 and the “fold change (FC)” value (Myzus persicae [6]) was 2. It also gave an Activity (Spodoptera littoralis [7]) of 92.7%, an EC50 (Spodoptera littoralis [8]) greater than 50 microg/cm2 and an inhibition at 50 µg/cm2 [9] of 89.9%. For the same molecule, the mortality [10] was 26% and the EC50 [11] was 12.8 microg/cm2.

With `CC(=O)OC/C=C(\COC(C)=O)C(C[C@@]1(C)[C@H](C)CC[C@]2(C)[C@@H]1CCCC2(O)CO)OC(C)=O` (stereo partly specified) the Activity (Spodoptera littoralis [1]) was 29.72%, the inhibition at 50 µg/cm2 (Spodoptera littoralis [2]) was 32.6% and the inhibition at 50 µg/cm2 [4] was 86.5%. For the same molecule, the Activity (Spodoptera littoralis [7]) was 38.19%, the EC50 (Spodoptera littoralis [8]) was greater than 50 microg/cm2 and the inhibition at 50 µg/cm2 [9] was 97.1%. For the same molecule, the mortality [10] was 50%.

Work on `C=C1CCC[C@@H]2[C@@](C)(C/C=C3/CC(OC(C)=O)OC3OC(C)=O)[C@H](C)CC[C@@]12C` (stereo partly specified) yielded an Activity (Spodoptera littoralis [1]) of 110.18%, an inhibition at 50 µg/cm2 (Spodoptera littoralis [2]) of 11.2% and an inhibition at 50 µg/cm2 (Myzus persicae [3]) of 43.1%. For the same molecule, the inhibition at 50 µg/cm2 [4] was 28.8%, the EC50 [5] was greater than 50 microg/cm2 and the “fold change (FC)” value (Myzus persicae [6]) was 2. For the same molecule, the Activity (Spodoptera littoralis [7]) was 110.26%, the EC50 (Spodoptera littoralis [8]) was greater than 50 microg/cm2 and the inhibition at 50 µg/cm2 [9] was 33.8%. The mortality [10] was 25% and the EC50 [11] was greater than 50 microg/cm2.
